Test results reported in ChEMBL document CHEMBL1201862, “PubChem BioAssay data set” (2004).
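Briefly, cells in 96-well plates were exposed to five compound concentrations for 48 h, and endpoints were estimated by linear interpolation. At the GI50, growth is halved.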 Activity calls are given as the source filed them. Cut-off read from the data, not from the text of the source: active = GI50 up to about 1.1 µM and inactive = higher.

Assays:
Experiment in all cases: inhibition of tumour cell growth, NCI panel, 48 h
SNB-78 = tested on: SNB-78
Malme-3M = tested on: Malme-3M
ACHN = tested on: ACHN
OVCAR-4 = tested on: OVCAR-4
UO-31 = tested on: UO-31
COLO 205 = tested on: COLO 205
NCI-H226 = tested on: NCI-H226
SNB-19 = tested on: SNB-19
NCI-H23 = tested on: NCI-H23
EKVX = tested on: EKVX
LOX IMVI = tested on: LOX IMVI
HT-29 = tested on: HT-29
OVCAR-3 = tested on: OVCAR-3
SK-MEL-28 = tested on: SK-MEL-28
HCC 2998 = tested on: HCC 2998
HL-60 = tested on: HL-60
SR = tested on: SR
DU-145 = tested on: DU-145
MDA-MB-435 = tested on: MDA-MB-435
NCI/ADR-RES = tested on: NCI/ADR-RES

Row | Structure (SMILES) | GI50 (SNB-78) | GI50 (Malme-3M) | GI50 (ACHN) | GI50 (OVCAR-4) | GI50 (UO-31) | GI50 (COLO 205) | GI50 (NCI-H226) | GI50 (SNB-19) | GI50 (NCI-H23) | GI50 (EKVX) | GI50 (LOX IMVI) | GI50 (HT-29) | GI50 (OVCAR-3) | GI50 (SK-MEL-28) | GI50 (HCC 2998) | GI50 (HL-60) | GI50 (SR) | GI50 (DU-145) | GI50 (MDA-MB-435) | GI50 (NCI/ADR-RES)
1 | c1ccc(C(c2ccccc2)c2ccncc2)cc1 | > 100 µM (inactive) | > 100 µM (inactive) | > 100 µM (inactive) | > 100 µM (inactive) | 69.5 µM (inactive) | > 100 µM (inactive) | > 100 µM (inactive) | > 100 µM (inactive) | > 100 µM (inactive) | > 100 µM (inactive) | > 100 µM (inactive) | 75.9 µM (inactive) | > 100 µM (inactive) | > 100 µM (inactive) | 61.7 µM (inactive) |  |  |  |  | 
2 | Cc1cc(C)nc(NS(=O)(=O)c2ccc(Nc3c4ccccc4nc4c(C(=O)Nc5ccc(S(N)(=O)=O)cc5)cccc34)cc2)n1 | > 100 µM (inactive) | > 100 µM (inactive) | > 100 µM (inactive) | 85.5 µM (inactive) | 37 µM (inactive) | > 100 µM (inactive) |  | 47 µM (inactive) | 68.5 µM (inactive) | 35.1 µM (inactive) | 75.9 µM (inactive) | > 100 µM (inactive) | 66.5 µM (inactive) | 83.9 µM (inactive) |  |  |  |  |  | 
3 | CC(C)(C)c1ccc(OCCOCCOc2ccc(C(C)(C)C)cc2S(=O)(=O)Nc2ccc([N+](=O)[O-])cc2)c(S(=O)(=O)Nc2ccc([N+](=O)[O-])cc2)c1 | 15.2 µM (inactive) | 83.9 µM (inactive) | 7.13 µM (inactive) | 33.7 µM (inactive) | 4.45 µM (inactive) | 21.8 µM (inactive) | 47.8 µM (inactive) | 76.4 µM (inactive) | 12.7 µM (inactive) | 62.5 µM (inactive) | 23.4 µM (inactive) | 7.38 µM (inactive) | 7.43 µM (inactive) | 15.5 µM (inactive) | 8.73 µM (inactive) | 5.58 µM (inactive) |  |  |  | 
4 | CC(=O)OC1CCC2C(=CCC3C2(C)C(=O)CC2(C)C(C4(C)OC(C(C)C)=CC4=O)C(O)CC32C)C1(C)C (stereo unspecified) | 78.3 µM (inactive) | 21.5 µM (inactive) | 40.7 µM (inactive) |  | 40.3 µM (inactive) | 56 µM (inactive) | 75 µM (inactive) | > 100 µM (inactive) | 63.2 µM (inactive) | 57.3 µM (inactive) |  | 17.8 µM (inactive) | > 10 µM (inactive) |  |  |  | 28.4 µM (inactive) |  |  | 
5 | CC(O)C(NC(=O)c1ccccc1)C(=O)N(Cc1ccccc1)Cc1ccccc1 (stereo unspecified) | > 100 µM (inactive) | > 100 µM (inactive) | > 100 µM (inactive) | > 100 µM (inactive) | > 100 µM (inactive) | > 100 µM (inactive) | > 100 µM (inactive) | > 100 µM (inactive) | > 100 µM (inactive) | > 100 µM (inactive) | > 100 µM (inactive) | > 10 µM (inactive) | > 100 µM (inactive) | > 100 µM (inactive) | > 100 µM (inactive) | 18.9 µM (inactive) |  |  |  | 
6 | C=CC[C@H](O)[C@@](NC(=O)OCc1ccccc1)(Sc1ccc(C)cc1)C(F)(F)F |  | 56.8 µM (inactive) | > 100 µM (inactive) | 28.2 µM (inactive) | 17.9 µM (inactive) | 20.3 µM (inactive) | 16.5 µM (inactive) | 32.6 µM (inactive) | 24.5 µM (inactive) | 30.6 µM (inactive) | 4.44 µM (inactive) | 23.9 µM (inactive) | 21.8 µM (inactive) | 43.7 µM (inactive) | > 100 µM (inactive) | 11.5 µM (inactive) | 20.1 µM (inactive) | 35.7 µM (inactive) | 24.1 µM (inactive) | 31.1 µM (inactive)
7 | O=C1C2Cc3c(n(C(=O)c4ccccc4)c4ccccc34)CC2C(=O)N1c1ccc(Nc2ccc(N3C(=O)C4Cc5c(n(C(=O)c6ccccc6)c6ccccc56)CC4C3=O)cc2)cc1 (stereo unspecified) |  | > 100 µM (inactive) | > 100 µM (inactive) | > 100 µM (inactive) | > 100 µM (inactive) | > 100 µM (inactive) | > 100 µM (inactive) | > 100 µM (inactive) | > 100 µM (inactive) | > 100 µM (inactive) | > 100 µM (inactive) | > 100 µM (inactive) | > 100 µM (inactive) | > 100 µM (inactive) | > 100 µM (inactive) | 8.85 µM (inactive) | 44.4 µM (inactive) | > 100 µM (inactive) | > 100 µM (inactive) | > 100 µM (inactive)
8 | Cc1ccc(Sc2ccccc2N)cc1 | 84.7 µM (inactive) | 46.5 µM (inactive) | 37.7 µM (inactive) | 46.9 µM (inactive) | 12.8 µM (inactive) | 40 µM (inactive) | 17.5 µM (inactive) | 38.6 µM (inactive) | 26.7 µM (inactive) | 54.6 µM (inactive) | 36.8 µM (inactive) | 31.1 µM (inactive) | 44.7 µM (inactive) | 67 µM (inactive) | 40.8 µM (inactive) | 18.9 µM (inactive) |  |  |  | 
9 | CC(Oc1ccc(OCC2CCCCC2)cc1)C(=O)O (stereo unspecified) | > 100 µM (inactive) | > 100 µM (inactive) | > 100 µM (inactive) | > 100 µM (inactive) | > 100 µM (inactive) |  | > 100 µM (inactive) |  | > 100 µM (inactive) |  | > 100 µM (inactive) | > 100 µM (inactive) | > 100 µM (inactive) | > 100 µM (inactive) |  | > 100 µM (inactive) |  |  |  | 
10 | C#C[C@]1(O)CC[C@H]2[C@@H]3CCC4=C/C(=N\OCCN5CCCC5)CC[C@]4(C)[C@H]3CC[C@@]21C |  | 10.8 µM (inactive) | 17 µM (inactive) | 20.6 µM (inactive) | 15.7 µM (inactive) | 13.7 µM (inactive) | 20.6 µM (inactive) | 15.3 µM (inactive) | 12 µM (inactive) | 12.9 µM (inactive) | 11.5 µM (inactive) | 12.7 µM (inactive) | 10.9 µM (inactive) | 14.9 µM (inactive) | 16.6 µM (inactive) | 5.35 µM (inactive) | 2.96 µM (inactive) | 19 µM (inactive) | 3 µM (inactive) | 9.95 µM (inactive)
11 | CCOC(=O)C1=C(C)N(c2ccc(C)cc2)C2(O)C=CC(O)=C3C(=O)c4ccccc4C(=O)C312 (stereo unspecified) |  | 20.6 µM (inactive) | 22.7 µM (inactive) | 25 µM (inactive) | 17.7 µM (inactive) | 32.4 µM (inactive) | 59.3 µM (inactive) | 24.4 µM (inactive) | 38.4 µM (inactive) | 39.3 µM (inactive) | 25.2 µM (inactive) | 25 µM (inactive) | 34.9 µM (inactive) | 24.9 µM (inactive) | 29.3 µM (inactive) | < 0.01 µM (active) | 0.635 µM (active) | 23.6 µM (inactive) | 36.2 µM (inactive) | 8.24 µM (inactive)
12 | CCC1(O)C=CC(=O)C=C1 |  | 8.77 µM (inactive) | 20.6 µM (inactive) | 23.1 µM (inactive) | 18.1 µM (inactive) | 42.4 µM (inactive) | 25.5 µM (inactive) | 18.1 µM (inactive) | 24.9 µM (inactive) | 55.1 µM (inactive) | 11.6 µM (inactive) | 31.8 µM (inactive) | 27.5 µM (inactive) | 23.3 µM (inactive) | 40.8 µM (inactive) | 35 µM (inactive) | 36.8 µM (inactive) | 23.9 µM (inactive) | 29 µM (inactive) | 24 µM (inactive)
13 | COc1ccccc1/C=C(\NC(=O)c1ccccc1)c1nc2ccccc2[nH]1 | 53.3 µM (inactive) | 95.7 µM (inactive) | 36.6 µM (inactive) | 35 µM (inactive) | 63.8 µM (inactive) | 28.8 µM (inactive) |  | 34 µM (inactive) | 33.2 µM (inactive) | 34.7 µM (inactive) | 52.4 µM (inactive) | 44.1 µM (inactive) | 44.5 µM (inactive) | 36.9 µM (inactive) |  |  |  |  |  | 
14 | O=C1c2cccc3cccc(c23)C(=O)N1CCCNOCCONCCCN1C(=O)c2cccc3cccc(c23)C1=O |  | 91.2 µM (inactive) | > 100 µM (inactive) | 86.3 µM (inactive) | 45.5 µM (inactive) | 83.8 µM (inactive) | 74.6 µM (inactive) | 47.9 µM (inactive) | 99.8 µM (inactive) | > 100 µM (inactive) | 43.5 µM (inactive) | 92.5 µM (inactive) | 94 µM (inactive) | > 100 µM (inactive) | 98.2 µM (inactive) | 4.84 µM (inactive) | 81.7 µM (inactive) | > 100 µM (inactive) | > 100 µM (inactive) | 12.7 µM (inactive)
15 | COc1cc(/C=C/c2ccncc2)cc(OC)c1OC | 96.2 µM (inactive) | > 100 µM (inactive) | > 100 µM (inactive) | 76.9 µM (inactive) | 24.4 µM (inactive) | > 100 µM (inactive) | > 100 µM (inactive) | > 100 µM (inactive) | > 100 µM (inactive) | 13.1 µM (inactive) | 72.4 µM (inactive) | 64.3 µM (inactive) | 94.2 µM (inactive) | > 100 µM (inactive) |  | 24.6 µM (inactive) |  |  |  | 
16 | NC(Cn1ccc(=O)c(O)c1)C(=O)O (stereo unspecified) [MIMOSINE] |  | 54.8 µM (inactive) | > 100 µM (inactive) | > 100 µM (inactive) | > 100 µM (inactive) | > 100 µM (inactive) | > 100 µM (inactive) | > 100 µM (inactive) | > 100 µM (inactive) | > 100 µM (inactive) | > 100 µM (inactive) | > 100 µM (inactive) | > 100 µM (inactive) | > 100 µM (inactive) | > 100 µM (inactive) | 81.5 µM (inactive) | 49.4 µM (inactive) | > 100 µM (inactive) | > 100 µM (inactive) | > 100 µM (inactive)
